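Results reflect a 48-hour exposure of cells in 96-well plates to compound at five concentrations. GI50 = concentration required for 50% inhibition of growth.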 Calls of active or inactive are those of the source. Rule as the data show it: active = GI50 up to about 1.1 µM and inactive = higher.
Experiments:
Test in all cases: DTP human tumour cell line panel, 48 h
[1] = system: T47D
[2] = system: HCT-116
[3] = system: MDA-MB-231
[4] = system: MDA-MB-435
[5] = system: Hs-578T
[6] = system: DU-145
[7] = system: IGROV-1
[8] = system: MCF7
[9] = system: PC-3
[10] = system: A498
[11] = system: NCI-H226
[12] = system: NCI/ADR-RES
[13] = system: Malme-3M
[14] = system: SR
[15] = system: SNB-78
[16] = system: KM-20L2
[17] = system: XF498
[18] = system: DLD-1
[19] = system: DMS-273
[20] = system: DMS-114

| SMILES | GI50 [1] | GI50 [2] | GI50 [3] | GI50 [4] | GI50 [5] | GI50 [6] | GI50 [7] | GI50 [8] | GI50 [9] | GI50 [10] | GI50 [11] | GI50 [12] | GI50 [13] | GI50 [14] | GI50 [15] | GI50 [16] | GI50 [17] | GI50 [18] | GI50 [19] | GI50 [20] |
| --- | --- | --- | --- | --- | --- | --- | --- | --- | --- | --- | --- | --- | --- | --- | --- | --- | --- | --- | --- | --- |
| COc1ccc(C2=NN(C(=O)c3ccc(Cl)cc3)C(O)(c3cc(F)c(Cl)cc3Cl)C2)cc1 (stereo not given) | 57.7 µM (inactive) | 23.4 µM (inactive) | > 100 µM (inactive) | 18.6 µM (inactive) | > 100 µM (inactive) | > 100 µM (inactive) | > 100 µM (inactive) | 19 µM (inactive) | 61.9 µM (inactive) | 71.6 µM (inactive) | > 100 µM (inactive) | 48.3 µM (inactive) | > 100 µM (inactive) |  |  |  |  |  |  |  |
| COc1ccc(C(=C2C=CC=C2)c2ccc(OC)cc2)cc1 | 24.2 µM (inactive) | 26.4 µM (inactive) | 16.1 µM (inactive) | 35.8 µM (inactive) | 33.6 µM (inactive) | 40.7 µM (inactive) | 52 µM (inactive) | 13.1 µM (inactive) | 47.5 µM (inactive) |  | 50.5 µM (inactive) | 47.3 µM (inactive) | 28.8 µM (inactive) | 25.9 µM (inactive) |  |  |  |  |  |  |
| CCOC(=O)CN(Cn1cncn1)Cn1cncn1 |  | 30.8 µM (inactive) |  |  |  |  | > 100 µM (inactive) |  |  |  | 28.1 µM (inactive) |  | 52 µM (inactive) |  | 91 µM (inactive) | 22.5 µM (inactive) | 20.4 µM (inactive) | 34.9 µM (inactive) | 20.5 µM (inactive) |  |
| Nc1ccn(C2OC(CO)C(O)C2O)c(=O)c1 (stereo not given) |  | 125 µM (inactive) |  |  |  |  | > 625 µM (inactive) | 188 µM (inactive) |  |  | > 625 µM (inactive) | 180 µM (inactive) | 114 µM (inactive) |  | > 625 µM (inactive) | 566 µM (inactive) | < 0.0625 µM (active) | 513 µM (inactive) | 165 µM (inactive) |  |
| CC[N+]1(C)CCC(O)(c2ccccc2)C(C(=O)c2ccccc2)C1 (stereo not given) | 16.9 µM (inactive) | 13.6 µM (inactive) | 17.2 µM (inactive) | 17.9 µM (inactive) | 24 µM (inactive) | 22.1 µM (inactive) | 19.8 µM (inactive) | 2.73 µM (inactive) | 17.9 µM (inactive) | 16.1 µM (inactive) | 18.6 µM (inactive) | 29.6 µM (inactive) | 16.7 µM (inactive) | 5.43 µM (inactive) |  | 19.5 µM (inactive) |  | 7.93 µM (inactive) | 21.4 µM (inactive) | 20.2 µM (inactive) |
| Cc1cc(O)nc(NN2C(Cl)C(=O)C2c2ccco2)n1 (stereo not given) |  | 43.4 µM (inactive) |  |  |  |  | 27 µM (inactive) |  |  |  |  |  |  | 28.4 µM (inactive) | 25.7 µM (inactive) | 39.4 µM (inactive) |  |  | 33.7 µM (inactive) | 34.4 µM (inactive) |
| O=C(Nc1c(Cl)cc([N+](=O)[O-])cc1Cl)/C(=N\Nc1cccc(Cl)c1)c1c(O)c2ccccc2oc1=O |  | 56.1 µM (inactive) |  |  |  |  | > 100 µM (inactive) |  |  | 21.2 µM (inactive) |  |  | > 100 µM (inactive) | 78.7 µM (inactive) |  | > 100 µM (inactive) |  | 42.9 µM (inactive) |  | 52.7 µM (inactive) |
| O=C(O)C(Br)Cc1ccc2c(c1)OCO2 (stereo not given) |  | > 100 µM (inactive) |  |  |  |  | > 100 µM (inactive) |  |  | 47.2 µM (inactive) |  |  | 40.7 µM (inactive) | > 100 µM (inactive) | > 100 µM (inactive) | > 100 µM (inactive) | 24 µM (inactive) | > 100 µM (inactive) |  | > 100 µM (inactive) |
| CCOC(=O)C1(C(C)=O)OC(=O)c2cnccc21 (stereo not given) | > 100 µM (inactive) | > 100 µM (inactive) | > 100 µM (inactive) | > 100 µM (inactive) | > 100 µM (inactive) | > 100 µM (inactive) | > 100 µM (inactive) | > 100 µM (inactive) | > 100 µM (inactive) | > 100 µM (inactive) | > 100 µM (inactive) | > 100 µM (inactive) | > 100 µM (inactive) | > 100 µM (inactive) |  |  |  |  |  |  |
| CCOC(=O)C1=C(C)N(c2ccc(Cl)cc2)C2(O)C=CC(Nc3ccc(Cl)cc3)=C3C(=O)N(c4ccccc4)C(=O)C312 (stereo not given) | 3.84 µM (inactive) |  | 4.25 µM (inactive) | 1.78 µM (inactive) | 5.51 µM (inactive) | 4.27 µM (inactive) | 5.36 µM (inactive) | 2.05 µM (inactive) | 2.94 µM (inactive) | 1.83 µM (inactive) |  | 2.75 µM (inactive) | 7.71 µM (inactive) | 2.88 µM (inactive) |  |  |  |  |  |  |
| Oc1[nH]c(Nc2cccc(Br)c2)nc2ncnc1-2 | 98.4 µM (inactive) | 53.8 µM (inactive) | 55.6 µM (inactive) | 93.5 µM (inactive) | 55.3 µM (inactive) | 73.3 µM (inactive) | > 100 µM (inactive) | > 100 µM (inactive) | 98.2 µM (inactive) |  | > 100 µM (inactive) | > 100 µM (inactive) | > 100 µM (inactive) | 76.4 µM (inactive) |  |  |  |  |  |  |
| C=CC(OC(=O)C(C)C)c1ccc(OC(=O)C(C)C)cc1 (stereo not given) | 21.6 µM (inactive) | 4.06 µM (inactive) | 16.4 µM (inactive) | 13.6 µM (inactive) | 35.7 µM (inactive) | 32.9 µM (inactive) | 18.4 µM (inactive) | 3.3 µM (inactive) | 8.97 µM (inactive) | 17.6 µM (inactive) | 20.6 µM (inactive) | 14.2 µM (inactive) | 7.57 µM (inactive) | 6.92 µM (inactive) |  |  |  |  |  |  |
| COP(=O)(OC)C(Cc1c[nH]c2ccccc12)NC(=O)OCc1ccccc1 (stereo not given) | 71.3 µM (inactive) | > 100 µM (inactive) | > 100 µM (inactive) | > 100 µM (inactive) | > 100 µM (inactive) | > 100 µM (inactive) | > 100 µM (inactive) | > 100 µM (inactive) | > 100 µM (inactive) | > 100 µM (inactive) | > 100 µM (inactive) | > 100 µM (inactive) |  | > 100 µM (inactive) |  |  |  |  |  |  |
| COc1cc(CNc2nc3c(NC(C)=O)cc(C(F)(F)F)cc3nc2-c2ccccc2)cc(OC)c1OC |  | > 100 µM (inactive) |  |  |  |  | > 100 µM (inactive) |  |  |  | > 100 µM (inactive) |  | 19.6 µM (inactive) | > 100 µM (inactive) |  | > 100 µM (inactive) | 26.5 µM (inactive) | > 100 µM (inactive) | > 100 µM (inactive) | > 100 µM (inactive) |
| CC1=Nc2nc(Cl)cn2C(=O)C1(Cl)Cl | > 10 µM (inactive) | > 10 µM (inactive) | > 10 µM (inactive) | > 10 µM (inactive) | > 10 µM (inactive) | > 10 µM (inactive) | > 10 µM (inactive) | > 10 µM (inactive) | > 10 µM (inactive) | > 10 µM (inactive) | > 10 µM (inactive) | > 10 µM (inactive) | > 10 µM (inactive) | > 10 µM (inactive) |  |  |  |  |  |  |
| CC(=N/NC(=S)Nc1c(C)n(C)n(-c2ccccc2)c1=O)/C(C)=N\NC(=S)Nc1c(C)n(C)n(-c2ccccc2)c1=O | > 100 µM (inactive) | > 100 µM (inactive) | > 100 µM (inactive) | > 100 µM (inactive) | > 100 µM (inactive) | > 100 µM (inactive) |  |  | > 100 µM (inactive) | > 100 µM (inactive) | > 100 µM (inactive) | > 100 µM (inactive) | > 100 µM (inactive) | > 100 µM (inactive) |  |  |  |  |  |  |
| COc1ccc(-c2c3c(nc4[nH]c(=S)[nH]c(=S)c24)CCCC3)cc1OC | 25.9 µM (inactive) | 29.4 µM (inactive) | 18 µM (inactive) | 34.5 µM (inactive) | 13.3 µM (inactive) | 35.8 µM (inactive) | 29.9 µM (inactive) | 29.6 µM (inactive) | 24 µM (inactive) |  |  | 21.5 µM (inactive) | 29 µM (inactive) | 27.9 µM (inactive) |  |  |  |  |  |  |
| C[C@H](N)C(=O)N[C@@H]1[C@H]2C(=C(O)C[C@@H](O)[C@@H]2O)C(=O)O[C@@H]1C |  | > 100 µM (inactive) |  |  |  |  | > 100 µM (inactive) | > 100 µM (inactive) |  | > 100 µM (inactive) | > 100 µM (inactive) | > 100 µM (inactive) | > 100 µM (inactive) |  |  | > 100 µM (inactive) | > 82 µM (inactive) | > 100 µM (inactive) | > 100 µM (inactive) | > 100 µM (inactive) |
| O=C(O)c1c[nH]c2c(=O)[nH]cnc12 |  | > 100 µM (inactive) |  |  |  |  | > 100 µM (inactive) |  |  |  |  |  | > 100 µM (inactive) | > 100 µM (inactive) | > 100 µM (inactive) |  |  | > 100 µM (inactive) |  | > 100 µM (inactive) |
| Cc1cccc(NC(N)=S)c1 |  | > 100 µM (inactive) |  |  |  |  |  |  |  | > 100 µM (inactive) |  |  | > 100 µM (inactive) | > 100 µM (inactive) | > 100 µM (inactive) |  | > 100 µM (inactive) | > 100 µM (inactive) |  | > 100 µM (inactive) |
| COC(=O)C1=C(C)N2CCSC2(C)C(C(=O)OC)C1c1cccc(Cl)c1 (stereo not given) |  | 13.6 µM (inactive) |  |  |  |  | 20.8 µM (inactive) |  |  |  | 19.2 µM (inactive) |  |  | 15.5 µM (inactive) |  | 17.5 µM (inactive) |  |  |  | 19.8 µM (inactive) |
| COc1ccc([C@@H]2ON(C)[C@H]3CN(C)C(=O)[C@@H]23)cc1 | > 100 µM (inactive) | > 100 µM (inactive) | > 100 µM (inactive) |  | > 100 µM (inactive) | > 100 µM (inactive) | > 100 µM (inactive) | > 100 µM (inactive) | > 100 µM (inactive) |  | > 100 µM (inactive) | > 100 µM (inactive) |  | > 100 µM (inactive) |  |  |  |  |  |  |
| CC1CC2C3CCC4=CC(=O)C=CC4(C)C3(F)C(O)CC2(C)C1(O)C(=O)COP(=O)(O)O (stereo not given) | > 100 µM (inactive) | > 33.7 µM (inactive) | > 100 µM (inactive) | > 100 µM (inactive) | > 100 µM (inactive) | > 100 µM (inactive) | > 100 µM (inactive) | > 100 µM (inactive) | > 100 µM (inactive) | > 100 µM (inactive) | > 100 µM (inactive) |  | > 100 µM (inactive) | 46.6 µM (inactive) | > 100 µM (inactive) | > 100 µM (inactive) | > 100 µM (inactive) | > 100 µM (inactive) | > 100 µM (inactive) |  |
